Test results reported in US20240238299A1, “USE OF PYRROLOPYRIMIDINE COMPOUND” (GUANGZHOU JOYO PHARMATECH CO., LTD, priority 2021, published 2024).

Key:
[1] = system: mouse CCL5 secretion by BV-2 cell line; assay: CCL5 secretion by LPS/IFN-γ-activated BV-2 cells (ELISA); assay type: cell-based
Description: (§1) Step 1: BV-2 cells in the exponential growth phase were collected, and viable cells were counted using a Vi-Cell XR cell counter. The cell suspension was adjusted to an appropriate concentration with the culture medium. 160 μL of cell suspension was added to each well of a 96-well cell culture plate, resulting in a final cell concentration of 12,000 cells per well. The culture plate was incubated for 24 hours in a 37° C., 5% CO2 incubator.
(§2) Step 2: A 10 mM DMSO compound stock solution was diluted at a ratio of 1:4 using DMSO to prepare a series of 1000× test compound solutions. These 1000× test compound solutions were further diluted at a ratio of 1:100 using cell culture medium to prepare a series of 10× test compound solutions. Finally, the 96-well plate that had been plated with cells the day before was taken out. According to the experimental well plate loading design, 20 μL of the corresponding 10× solution was added to each well, with three duplicate wells for each drug concentration. The final concentrations of the test compounds used in the experiment (i.e., 1× solutions) have a range of 10, 2.5, 0.625, 0.156, 0.0391, 0.0098, and 0.0024 μM. The final DMSO concentration in each well was 0.1%.
(§3) After the compound was added, the 96-well plate was incubated for half an hour in the 37° C., 5% CO2 incubator.
After the pre-incubation was completed, 20 μL of culture medium containing 100 ng/mL LPS and 100 ng/mL IFN-γ (final concentrations of 10 ng/mL LPS and 10 ng/mL IFN-7) was added to each well to induce the activation of BV-2 cells. The culture plate was then incubated for 24 hours in the 37° C., 5% CO2 incubator. […]
(§4) Step 5 (NO and CCL5 detection): The CCL5 levels in the supernatant were detected using an ELISA kit (Mouse CCL5/RANTES DuoSet ELISA; R&D; DY478-05), following the instructions provided with the kit. The nitric oxide (NO) levels in the supernatant were detected using the Griess Reagent System (Promega; G2930), following the instructions provided with the kit.
(§5) Step 1: Firstly, the optical density values obtained from ELISA and Griess tests were used to plot a standard curve and calculate the absolute concentrations of each sample. The absolute concentration was then calibrated using the CTG fluorescence value corresponding to each sample to obtain the calibrated concentration. The formula for calculating the calibrated concentration was: calibrated concentration=absolute concentration/CTG fluorescence value of the same sample.
Step 2: Based on the calibrated concentration of each sample, the relative percentage of CCL5 or NO secretion (i.e., CCL5 production (%) or NO production (%)) at each test concentration relative to the blank (DMSO) group was calculated. […]

[2] = system: NO secretion by BV-2 cell line; assay: NO secretion by LPS/IFN-γ-activated BV-2 cells (Griess Reagent System); assay type: cell-based, Mouse
Description: as §1, §2, §3
After the pre-incubation was completed, 20 μL of culture medium containing 100 ng/mL LPS and 100 ng/mL IFN-γ (final concentrations of 10 ng/mL LPS and 10 ng/mL IFN-7) was added to each well to induce the activation of BV-2 cells. The culture plate was then incubated for 24 hours in the 37° C., 5% CO2 incubator.
Step 3: After 24 hours of treatment with the compound, the culture plate was centrifuged at 1200 rpm for 5 minutes. The supernatant was pipetted into another plate, which was sealed with tinfoil and stored at −20° C. for future ELISA and Griess reagent system assays. The cell culture plate from which the supernatant had been removed was immediately used for cell proliferation assays using the CellTiter-Glo (CTG) method.
as §4, §5
Step 2: Based on the calibrated concentration of each sample, the relative percentage of CCL5 or NO secretion (i.e., CCL5 production (%) or NO production (%)) at each test concentration relative to the blank (DMSO) group was calculated. The formula for calculating the relative percentage was: relative percentage %=(calibrated concentration of the test concentration group)/(calibrated concentration of the blank group).
Step 3: Finally, the relative percentage of CCL5 secretion or the relative percentage of NO secretion was plotted against the logarithm of the compound concentration. […]

[3] = system: MOG35-55-induced EAE mouse spinal cord; assay: EAE mouse model, spinal cord H&E and LFB pathological scoring; assay type: in vivo, C57BL/6 mice; details: day 28
Description: For each group consisting of 5 mice, euthanasia was performed followed by cardiac perfusion with saline. Subsequently, an equal volume of 10% formalin was perfused. Spinal cord tissues from the mice were collected, soaked in […], and then sectioned. Hematoxylin & Eosin (H&E) staining and Luxol Fast Blue (LFB) staining were performed, along with pathological scoring.
At the end of the experiment, the spinal cords of mice were collected, with 2 in the normal control group and 5 in each of the remaining groups. The spinal cords were fixed in formalin, followed by paraffin embedding and sectioning. Two sections were taken from each mouse and subjected to H&E and FLB staining for pathological observation. Scoring was done for cell infiltration, lesion areas, and demyelination. […] Specifically, after H&E staining of the mouse spinal cord, cell infiltration (A) and lesion area (B) in the spinal cord sections were counted. After LFB staining, the degree of demyelination (C) in the spinal cord sections was scored. Data were presented as mean±standard error of the mean (mean±SEM). *p<0.05, **p<0.01, ***p<0.001, ****p<0.0001, vs. vehicle control group (Vehicle), one-way ANOVA.

[4] = system: STAT3 phosphorylation (p-STAT3/STAT3) in spinal cord; assay: EAE mouse model, STAT3 phosphorylation in spinal cord (Western blot); assay type: in vivo, C57BL/6 mice; details: for inhibition rate of STAT3 phosphorylation in spinal cord: day 28
[5] = 24 h co-incubation, up to 10 μM

For `CN(c1ncnc2[nH]ccc12)[C@@H]1CCc2cc(C#N)nn2C1` [Compound I], the “Maximum inhibition rate on CCL5 secretion by BV-2” value [1, 5] was 80.29%, the IC50 ([1]; Mus musculus, BV-2, 24 h co-incubation) was 863 nM and the “Maximum inhibition rate on NO secretion by BV-2” value [2, 5] was 100%. The IC50 ([2]; Mus musculus, BV-2, 24 h co-incubation, read-out: IC50 on NO secretion by BV-2) was 487 nM, the “cell infiltration, lesion area and demyelination compared with Fingolimod” value ([3]; 10 mg/kg BID) was “significantly better therapeutic effect than the positive drug Fingolimod group” and the “damage to the spinal cord caused by EAE modeling” value ([3]; all doses (3, 10, 20 mg/kg BID, 20 mg/kg QD)) was “significantly inhibited the damage to the spinal cord”. For the same compound, the “inhibition rate of STAT3 phosphorylation in spinal cord” value ([4]; 10 mg/kg BID) was 86%, the “inhibition rate of STAT3 phosphorylation in spinal cord” value ([4]; 20 mg/kg BID) was 86% and the “STAT3 phosphorylation in spinal cord” value ([4]; all dose groups, day 28, 0.25 h after administration) was “significantly inhibited the level of STAT3 phosphorylation in spinal cord”.
